Reference: publication PMC11519904, “Comprehensive Cell Biological Investigation of Cytochalasin B Derivatives with Distinct Activities on the Actin Network” (Journal of Natural Products, 2024)
In brackets after ≈: the same amount, converted by molar mass. Entries after “also recorded” stand apart in the source; their conditions may differ. Where two headings read alike, the source gives them in different places.

Tests used:
[1] = tested on: glucose carrier in human erythrocytes; conditions: cited from earlier work
[2] = tested on: U-2OS cells; assay: Cell proliferation assay (Incucyte), 24 h treatment and 47 h recovery; format: cell-based, human; conditions: 24 h 5 x IC50 treatment
Description: U-2OS cells were seeded into fibronectin-coated (25 μg/mL) 96-well plate wells at densities of 3700 cells/well and allowed to spread overnight at 37 °C and 7.5% CO2. Cells were treated with 5 × IC50 concentrations of desired compounds for 24 h, washed twice with prewarmed PBS, and cultured in complete medium for further 47 h. Cells were recorded immediately after compound addition over the course of the experiment using an Incucyte S3 live-cell analysis system (Sartorius, Göttingen, Germany) with a 20 × objective at 37 °C and 5% CO2. Three phase contrast images per well and three wells per treatment were captured every hour for 71 h. The quantification of phase object counts was accomplished with the Adherent Cell-by-Cell analysis module of the IncuCyte S3 Live Cell Analysis Software and normalized to the average, respective initial phase contrast count. Graphical presentation of the data and ordinary one-way ANOVA followed by Dunnett’s multiple comparisons test was performed using GraphPad Prism version 8.4.3 for Windows, GraphPad Software (Boston, MA, USA, www.graphpad.com).

[3] = tested on: filamentous actin (F-actin) in U-2OS wild type (wt) cells; assay: Actin disruption assay in U-2OS cells (phalloidin staining); format: cell-based, human; conditions: for effect on F-actin network, high dose 1 h: 5 x IC50 (L929), compared to control; for effect on actin and nuclei number, high dose 24 h: 5 x IC50, 24 h, differences between 1 and 24 h treatment
Description: For this, the human osteosarcoma cell line U-2OS was treated using concentrations estimated based on previously determined IC50 values in murine L929 fibroblasts (Table 1), referred to as low dose (1 × IC50), and a 5-fold concentration, referred to as high dose (5 × IC50). Reorganization of the F-actin network was also investigated upon high dose treatment, followed by washout and a 1 h recovery phase in fresh medium. The impact on F-actin network organization was visualized using fluorescently labeled phalloidin (Figure 2). […] In addition, the effects on F-actin structures observed upon high dose treatment of all compounds were fully reversible after a 1 h recovery time (Figure 2m–q).
The respective previously determined IC50 values in L929 were used to calculate the treatment concentration (1 × IC50: low dose; 5 × IC50: high dose).[37] DMSO was used as the vehicle control, corresponding to the highest compound volume used in the assay. Coverslips were coated with 25 μg/mL fibronectin (Roche, Mannheim, Germany) diluted 1:40 in phosphate buffered saline (PBS, pH 7.4, Life Technologies), and cells were seeded at a density of 20,000 cells and allowed to spread overnight. CO2-equilibrated culture medium was spiked with the desired compound and DMSO, respectively, in the above-mentioned concentration, and cells were treated with prepared medium for 1 h under cell culture conditions. For long-term experiments, the treatment phase was extended to 24 h. Cells were washed once and fixed afterward using 4% prewarmed paraformaldehyde (PFA) supplied in PBS for 20 min at 37 °C, followed by three additional washing steps with prewarmed PBS buffer. In addition, the reversibility of high dose effects on F-actin network organization was investigated by a washout procedure including three times prewarmed PBS wash steps prior to the addition of fresh medium and a recovery time of 1 h before fixation. In the case of 24 h treatments, the recovery phase was extended to 47 h. Cells were permeabilized with 0.1% Triton X-100 (Bio-Rad Laboratories, Hercules, CA, USA) in PBS buffer for 1 min at room temperature, washed three times with PBS, and stained for F-actin using ATTO-594-coupled phalloidin (ATTO-Tec, Siegen, Germany) diluted in PBS buffer (1:100) for 1 h at room temperature. Coverslips were washed thrice in PBS and mounted in ProLong Diamond antifade mountant (Invitrogen) containing DAPI to probe for nuclear DNA. Cells were recorded using an inverted microscope (Nikon Eclipse Ti2, Tokyo, Japan) equipped with a 60 times Nikon oil immersion objective (Plan Apofluar, 1.4 NA), a pE-4000 (CoolLED, Andover, UK) as light source, and a pco.edge back-illuminated sCMOS camera (Excelitas Technologies, Mississauga, ON, Canada). The microscopy system was operated by and images were recorded with NIS (Nikon) and processed with ImageJ (NIH, Bethesda, MD, USA).

[4] = tested on: KB3.1 (human cervix carcinoma); assay: Cytotoxicity assay (MTT), KB3.1; format: cell-based; conditions: 5 days of incubation, MTT, read-out: IC50 KB3.1
Description: The cytotoxicity assay was implemented in 96-well flat-bottom microtiter plates following a reported procedure.[21],[22],[33] The mammalian cell lines L929 (mouse fibroblast) and KB3.1 (human cervix carcinoma) were cultivated at 37 °C and 10% CO2 in Dulbecco’s modified minimum essential medium (DMEM, Life Technologies, Carlsbad, CA, USA) supplemented with 10% fetal bovine serum (FBS, Life Technologies). The microtiter plate was filled with 120 μL of suspended cells (50,000/mL), and 60 μL of a serial dilution of the test compound was added. After 5 days of incubation, growth inhibition (IC50) was determined by a colorimetric tetrazolium dye MTT assay.[34] The compounds were dissolved in MeOH (1 mg/mL), MeOH was used as negative control, and epothilone[35] (1 mg/mL) was used as positive control.

[5] = tested on: Schizosaccharomyces pombe (DSM 70572); assay: Serial dilution assay (MIC), S. pombe; format: cell-based; conditions: DSM70572, growth inhibition at 24 h, read-out: MIC against S. pombe
Description: Serial dilutions of compounds were prepared as triplicates in sterile U-bottom-shaped 96-well plates (Corning, USA). Mueller-Hinton broth (MHB) medium was used for bacteria, and YMG medium was used for filamentous fungi and yeasts. The selected organisms represent a broad spectrum of pathogens of clinical interest, as well as sensitive indicator strains (Gram-positive bacteria: Bacillus subtilis (DSM 10), Staphylococcus aureus (DSM 346), Mycobacterium smegmatis (ATCC 7000084); Gram-negative bacteria: Acinetobacter baumannii (DSM 30008), Chromobacterium violaceum (DSM 30191), Escherichia coli (DSM 1116), Pseudomonas aeruginosa (PA 14); fungi and yeast: Schizosaccharomyces pombe (DSM 70572), Pichia anomala (DSM 6766), Mucor hiemalis (DSM 2656), Candida albicans (DSM 1665), Rhodotorula glutinis (DSM 10134)).
The compounds were dissolved in MeOH (1 mg/mL), added to the bacterial suspension, and diluted to the final concentrations. The plate was incubated at 37 °C under static conditions. Growth inhibition was assessed at 24 h. MeOH was used as negative control. […]

| Structure (SMILES) | binding to site I of the glucose carrier ([1]; human erythrocyte membranes ref 30) | inhibition of glucose transport ([1]; human erythrocytes ref 29, 30) | cell proliferation / recovery after washout [2] | effect on F-actin network, high dose 1 h ([3]; 1 h) | effect on actin and nuclei number, high dose 24 h [3] | IC50 [4] | IC50 ([4]; Homo sapiens, KB 3-1, 120 h) | MIC [5] | effect on F-actin network, low dose ([3]; 1 x IC50 (L929), 1 h) |
| --- | --- | --- | --- | --- | --- | --- | --- | --- | --- |
| C=C1[C@@H](C)[C@H]2[C@H](Cc3ccccc3)NC(=O)[C@]23OC(=O)/C=C/[C@H](O)CCC[C@@H](C)C/C=C/[C@H]3[C@@H]1OC(C)=O [Compound 3, 7-O-acetyl cytochalasin B] | able to bind site I | inhibits glucose transport | significantly diminished; also recorded: completely abolished | no such structures; also recorded: no effect | + actin disruption; also recorded: altered actin structures, however without inducing multinucleation | – | – | – | – |
| C=C1[C@@H](C)[C@H]2[C@H](Cc3ccccc3)N(C(C)=O)C(=O)[C@]23OC(=O)/C=C/[C@H](O)CCC[C@@H](C)C/C=C/[C@H]3[C@@H]1O [Compound 5, N-acetyl cytochalasin B] | – | – | – | only slight; also recorded: moderate effects | + multinucleation actin disruption | 7.9 µM | 4.8 to 9.4 µM | – | – |
| C=C1[C@@H](C)[C@H]2[C@H](Cc3ccccc3)NC(=O)[C@]23OC(=O)/C=C/[C@H](OC(C)=O)CCC[C@@H](C)C/C=C/[C@H]3[C@@H]1O [Compound 6, 20-O-acetyl cytochalasin B] | – | – | – | complete collapse of the F-actin network; also recorded: actin disruption | + multinucleation | – | – | 33.3 µg/mL (≈ 63.8 µM) | partially led to compromised lamellipodia and a reduction of intermittent, cytoplasmic F-actin |
